Data: patent US20180085371A1, “COMBINATION OF PANOBINOSTAT AND RUXOLITINIB IN THE TREATMENT OF CANCER SUCH AS A MYELOPROLIFERATIVE NEOPLASM” (Novartis AG, priority 2011, published 2018)
Read-outs that look alike come from different tables or passages of the source.

Legend:
[1] = tested on: JAK2V617F bone marrow transduced cells; assay: JAK2V617F bone marrow transplant model of polycythemia vera-like disease (spleen weight, blood counts, GFP-positive cells)
Protocol: Briefly, Balb/c donor mice (6-8 weeks, Charles River, males or females) were treated 5 days prior BM transplant with 5-fluorouracil (150 mg/kg, i.p., Sigma-Aldrich, cat #F6627). Bone marrow cells from donor mice were harvested by flushing femurs and tibias. After red cell lysis (StemCellTechnologies, Grenoble, France, cat #07800), nucleated cells were cultured for 24 hours in transplant medium (RPMI+10% FCS+25 ng/ml IL3 (R&D Systems, Abington, UK, cat #403-ML), 25 ng/ml IL6 (R&D Systems cat #406-ML), and 50 ng/ml Stem Cell Factor (SC F, Bioconcept, Allschwill, Switzerland, cat #D-63120). The next day, cells were plated at 2×10^6cells/ml/well in 6 well plates in the presence of 1 mL of supernatant containing virions from 293T transfected with 10 μg of p-MSCV-JAK2V617F-IRES-GFP vector (modification of original vector p-MSCV vector purchased from Clontech) and 10 μg of pCL-ECO vector (Imgenex, cat #10045P). After two spin-infections (2500 rpm for 90 min at 32° C., Multifuge 1S-R, Heraeus) unselected infected BM cells were resuspended in Hank's balanced salt solution (HBSS) before cell injection (1-3×10^6 depending on infection rate) into the tail vein of lethally irradiated Balb/c female recipient mice (total 9 Gy or 7 Gy) given as two 4.5 or 3.5 Gy doses 4 hours apart) using a BIOBEAM 8000, gamma irradiator (BEBIG GmbH, Germany).
Animals were monitored daily and sacrificed in case of major signs of distress (excessive body weight loss over more than 2 consecutive days without improvement, combined with lethargy and piloerection).
Blood was drawn from the tail vein or at sacrifice from the vena cava with a 20 G needle under isoflurane anesthesia (terminal procedure) and analyzed using an automated complete and differential blood cell counter (capillary mode using dilution 1:5 on a Sysmex blood analyzer, XT2000iV, Sysmex Digitana AG, Norderstedt, Germany). Spleens were weighed to evaluate splenomegaly. Blood, spleens, sterna, and livers were collected for pharmacokinetic, pharmacodynamic.
Ten microliters of whole blood were used to detect circulating GFP-positive cells. Briefly, blood was distributed into a 96-well round bottom plate (Costar, cat #3795) and red blood cells (RBC) were lysed with 200 μl of red blood cell lysis buffer (Sigma, cat #R-7757). After an incubation period of 7 min. in the dark on a plate agitator, cells were centrifuged (5 min., 300 g) and the supernatant discarded by inversion of the plate. After 3 washing steps in FACS buffer (phosphate buffered saline (D-PBS), 3% FBS and 0.02% sodium azide), nucleated cells were resuspended in 200 μl of cold FACS buffer and processed for GFP detection using a LSRII flow cytometer (BD Biosciences, Heidelberg, Germany).
Mice were randomized on day 27 post BMT based on Hct values (67% in average in this experiment, N=9/group) and treated with Compound B (8 mg/kg, 3×/week MWF, i.p.) and Compound A (60 mg/kg, q12h, p.o.) as single agents or combined.

[2] = tested on: Ba/F3 EpoR JAK2V617F-luc clone 8 cells; assay: Ba/F3 EpoR JAK2V617F-luc cells-driven leukemic disease mouse model, Xenogen bioluminescence; format: in vivo; settings: for T/C last day (%): (treated/control)·100; for Fractional change in Biolux: biolux last day/first day, mean
Protocol: A study is conducted to test the efficacy of the combination of Compound A and Compound B in Scid-beige mice injected i.v. (tail vein) with 1·10^6 Ba/F3 EpoR JAK2V617F-luc clone 8 cells.
• 80 Scid-beige female mice, 18-22 g (8 groups of 7 mice, 24 excluded at time of randomization) • Cells: Ba/F3 EpoR JAK2V617F-luc clone 8 cells. • Whole body Xenogen imaging was performed on days 4, 7, 9 and 11 after cell injection. Randomization of animals into treatment groups was based on bioluminescence (BioL) on day 4 after cell injection. • The mouse model and the protocol is described by Baffert et al., Mol. Cancer Ther; 9(7), 1945, July 2010. Animal and Cell line: • Cell line: Ba/F3EpoR JAK2V617F-luc clone 8 • Gene: JAK2V617F • Cell-Nr./Injection site: 1×10e6 cells in 200 ul/tail i.v. injection • Species: mouse • Strain: CB17/C.B-Igh-l^b/GbmsTac-Prkdc^scid-lyst^bgN7, Taconic farms (complete name Taconic) • Gender: female • Age: […] • Number: 80 mice
Ba/F3 EpoR JAK2V617F-luc cells are grown in RPMI1640 supplemented with 10% FCS, 1% Glutamine, Puromycin (1 ug/mL) and Hygromycin (100 ug/mL). Cells are splited every three days (1:50) not more than two weeks before experiment. The day prior the injection, cells are grown without any antibiotics (to avoid any potential delay in cell growth in vivo).
The day of injection the cells are harvested and resuspended in HBSS buffer (10e6 cells in 200 ul). Cells are injected in tail vein using 27G tuberculin syringe. […]
Bioluminescence are recorded using the Xenogen Camera (non invasive IVIS® Imaging system, Caliper) on day 4, day 7 and 10 post cell injection under isofluran anesthesia (3-5% vol isofluran, 0.8 L/min air flow). Animals are injected i.p. with D-luciferin (Xenogen corporation, ref XR-1001), at 150 mg/kg (10 ml/kg, Nacl). Anesthetized mice are then placed in the imaging chamber for imaging 15 minutes after the luciferin injection.
Animals are randomized on day 4 and treatment started for at least 6 days based on well being of vehicle treated animals.

[3] = Levels post therapy, Example B (UPLC/MS-MS, blood and tissues); format: in vivo, mouse; settings: mean, N = 9; for concentration at 2 h: Balb/c, mouse, blood, read-out: Blood level 2 hr after final dose
Protocol: (§1) Concentrations of Compound A and Compound B in plasma and tissues were determined simultaneously by an UPLC/MS-MS assay. Tissues were homogenized in an equal volume of HPLC-Water (Water for chromatography, Merck) using the Fast Prep®-24 system (M.P. Biomedicals, Irvine, Calif., USA). Following addition of 25 μl of internal standard mixture (1 μg/ml) to analytical aliquots (25 μl) of blood or tissues homogenate, the proteins were precipitated by the addition of 200 μl acetonitrile. The supernatant were transferred in a fresh vial. After evaporation to dryness the samples were re-dissolved in 60 μl acetonitrile/water (1/1 v/v). An aliquot (5 μl) of this solution was separated on a ACQUITY UPLC BEH C18 column (Waters™ 1.7 μm particle size, 2.1×50 mm) with a mobile phase consisting of a mixture of 0.1% formic acid in water (solvent A) and 0.1% formic acid in acetonitrile (solvent B). Gradient programming was used with a flow rate of 600 μl/min. After equilibration with 95% solvent A, 5 μl of sample was injected. Following a latency period of 0.25 min., the sample was eluted with a linear gradient of 5-100% solvent B over a period of 0.65 minutes followed by a 0.35 min. hold. The column was prepared for the next sample by re-equilibrating over 0.25 min. to the starting conditions. The column eluent was directly introduced into the ion source of the triple quadrupole mass spectrometer TQDTM (Waters Corporation, Milford, Mass., USA) controlled by Masslynx™ 4.1 software. Electrospray positive ionization (ESI+) multiple reaction monitoring was used for the MS/MS detection of the analyte. Precursor to product ion transition of 307.0→m/z 186.0 for Compound A was used. Simultaneously precursor to product ion transition of 350.1→m/z 142.9 for Compound B was recorded. The limit of quantification (LOQ) for both compounds was set to 9 ng/ml and 9 ng/g for plasma and tissues, respectively (CV and overall bias less than 30%). Regression analysis and further calculations were performed using QuanLynx™ 4.1 (Micromass) and Excel™ 2007 (Microsoft). Concentrations of unknown samples were back-calculated based on the peak area ratios of analyte/IS from a calibration curve constructed using calibration samples spiked in blank blood or tissue obtained from animals treated with vehicle.

[4] = PK analysis 2 hours post-therapy, Example A (blood and tissue levels); format: in vivo, mouse; settings: mean; for BM level 2 hr post-therapy: BM levels to be taken with caution
Protocol: 2 hours after last dose for Compound A;
2 hours after last dose for Compound B; • Spleen weight is recorded at sacrifice. • Samples collected and snap frozen in liquid nitrogen and then kept at −80° C. until analysis: • spleen, BM, blood and liver for PK analysis • spleen for PD marker analysis (p-STATS (Compound A) and protein acetylation (Compound B)), • sternum for PD marker analysis (p-STATS (Compound A).
as §1

[5] = sacrifice day after 21 days, Compound B 8 mg/kg ip, Compound A 60 mg/kg po q12h, or Combo
[6] = Compound A 60 mg/kg po twice a day
[7] = Combo Compound A (60 mg/kg) and B (8 mg/kg)
[8] = single agent: Comp'd B 8 mg/kg or Comp'd A 60 mg/kg
[9] = treatment Compound A 60 mg/kg + Compound B 4 mg/kg
[10] = treatment Compound A 60 mg/kg + Compound B 8 mg/kg
[11] = treatment Compound A 60 mg/kg + Compound B 12 mg/kg

Compound	Hct (%) (mean ± SEM) [1, 5]	Retic counts (×10^12/L) (mean ± SEM) [1, 5]	concentration at 2 h [3, 7]	concentration at 2 h [3, 8]	BM level 2 hr after final dose [3, 7]	Liver level 2 hr after final dose [3, 7]	Spleen level 2 hr after final dose [3, 7]	BM level 2 hr after final dose [3, 8]	Liver level 2 hr after final dose [3, 8]	Spleen level 2 hr after final dose [3, 8]	Blood level 2 hr post-therapy [4, 9]	Liver level 2 hr post-therapy [4, 9]	Spleen level 2 hr post-therapy [4, 9]	BM level 2 hr post-therapy [4, 9]	Blood level 2 hr post-therapy [4, 10]	Liver level 2 hr post-therapy [4, 10]	Spleen level 2 hr post-therapy [4, 10]	BM level 2 hr post-therapy [4, 10]	Blood level 2 hr post-therapy [4, 11]	Liver level 2 hr post-therapy [4, 11]	also measured
N#CC[C@H](C1CCCC1)n1cc(-c2ncnc3[nH]ccc23)cn1 [Compound A, (R)-3-(4-(7H-pyrrolo[2,3-d]pyrimidin-4-yl)-1H-pyrazol-1-yl)-3-cyclopentylpropanenitrile]	59.4%	0.42 ×10^12/L	4110 nM	8180 nM	1.469 nmol/g	3.568 nmol/g	1.575 nmol/g	2.223 nmol/g	6.537 nmol/g	2.566 nmol/g	2780 nM	3.49 + nmol/g	1.15 + nmol/g	2.59 + nmol/g	2230 nM	2.91 nmol/g	1.02 nmol/g	1.92 nmol/g	2720 nM	3.87 nmol/g	PLT (×10^9/L) (mean ± SEM) [1, 5]: 695.9 ×10^9/L; WBC (×10^9/L) (mean ± SEM) ([1]; sacrifice day after 21 days, Compound B 8 mg/kg ip, Compound A 60 mg/kg po q12h, or Combo, all values): 22.2 ×10^9/L; GFP positive circulating cells (%) ([1]; sacrifice day after 21 days, allele burden surrogate, Compound B 8 mg/kg ip, Compound A 60 mg/kg po q12h, or Combo): 34.0%; WBC (×10^9/L), mean without outlier ([1]; sacrifice day, Compound A 60 mg/kg po q12h, value between brackets, 1 outlier excluded): (7.46 ×10^9/L; T/C last day (%) [2, 6]: 40%; Fractional change in Biolux [2, 6]: 717; Spleen level 2 hr post-therapy [4, 11]: 1.61 nmol/g; BM level 2 hr post-therapy [4, 11]: 2.29 nmol/g; Blood level 2 hr post-therapy ([4]; treatment Compound A 60 mg/kg): 1960 nM; Liver level 2 hr post-therapy ([4]; treatment Compound A 60 mg/kg): 4.54 nmol/g; Spleen level 2 hr post-therapy ([4]; treatment Compound A 60 mg/kg): 1.28 nmol/g; BM level 2 hr post-therapy ([4]; treatment Compound A 60 mg/kg): 1.40 + nmol/g
Cc1[nH]c2ccccc2c1CCNCc1ccc(/C=C/C(=O)NO)cc1 [Compound B, N-hydroxy-3-[4-[[[2-(2-methyl-1H-indol-3-yl)-ethyl]-amino]methyl]phenyl]-2E-2-propenamide]	52.2%	0.24 ×10^12/L	6 nM	35 nM	4.398 nmol/g	0.33 nmol/g	15.317 nmol/g	2.704 nmol/g	0.264 nmol/g	10.045 nmol/g	20 nM	0.30 + nmol/g	2.80 + nmol/g	6.15 + nmol/g	30 nM	0.32 nmol/g	3.02 nmol/g	8.43 nmol/g	20 nM	0.71 nmol/g	Fractional change in Biolux ([2]; Compound B 4 mg/kg ip M/W/F (free-base equivalent)): 481; T/C last day (%) ([2]; Compound B 4 mg/kg ip M/W/F): 27%; T/C last day (%) ([2]; Compound B 8 mg/kg ip M/W/F): 20%; Fractional change in Biolux ([2]; Compound B 8 mg/kg ip M/W/F): 351; T/C last day (%) ([2]; Compound B 12 mg/kg ip M/W/F): 11%; Fractional change in Biolux ([2]; Compound B 12 mg/kg ip M/W/F): 204; Spleen level 2 hr post-therapy [4, 11]: 4.51 nmol/g; BM level 2 hr post-therapy [4, 11]: 9.81 nmol/g; Blood level 2 hr post-therapy ([4]; treatment Compound B 4 mg/kg): BLQ; Liver level 2 hr post-therapy ([4]; treatment Compound B 4 mg/kg): 0.18 nmol/g; Spleen level 2 hr post-therapy ([4]; treatment Compound B 4 mg/kg): 1.40 nmol/g; BM level 2 hr post-therapy ([4]; treatment Compound B 4 mg/kg): 3.34 nmol/g; Blood level 2 hr post-therapy ([4]; treatment Compound B 8 mg/kg): BLQ; Liver level 2 hr post-therapy ([4]; treatment Compound B 8 mg/kg): 0.25 nmol/g; Spleen level 2 hr post-therapy ([4]; treatment Compound B 8 mg/kg): 2.07 nmol/g; BM level 2 hr post-therapy ([4]; treatment Compound B 8 mg/kg): 3.17 nmol/g; Blood level 2 hr post-therapy ([4]; treatment Compound B 12 mg/kg): BLQ; Liver level 2 hr post-therapy ([4]; treatment Compound B 12 mg/kg): 0.63 nmol/g; Spleen level 2 hr post-therapy ([4]; treatment Compound B 12 mg/kg): 3.64 nmol/g; BM level 2 hr post-therapy ([4]; treatment Compound B 12 mg/kg): 7.32 nmol/g
